# Patent US9447023B2, “Curcumin and tetrahydrocurcumin derivatives” (Research Foundation of the City University of New York, priority 2006, dated 2016)
# Legend:
# [1] = Molar extinction coefficient of curcumin analogs (UV-visible); format: physicochemical; settings: in M-1 cm-1 (unit assumed)
# Excerpt: Each curcumin derivative is bioconjugated to create a biopolymer that can be used as an eco-friendly dye. For example, compounds 1b and 1d can be conveniently conjugated to the lysine residues of proteins, the azide and the alkyne derivatives can be attached to proteins via the ‘click’ bioconjugation reaction. Compounds 1c and 1e have the advantage that unlike most reactive groups which are used for bioconjugation, alkyne and azide groups are stable in aqueous media (Scheme 5). The absorbance and fluorescence properties of these dyes are similar to the parent molecule.
# Reagent-grade solvents such as acetone and tetrahydrofuran were used without further purification. For High Performance Liquid Chromatography (HPLC), methylene chloride was used with Pure Solv™ solvent purification system. Curcumin was obtained from Acros-Organics. Copper acetate and sodium ascorbate were purchased from Sigma. Silica gel 60 F 254 plates for thin-layer chromatography (TLC) were purchased from Merck. Column chromatographic separations were carried out using silica gel (Fisher) with a particle size of 0.040-0.063 mm. Nuclear magnetic resonance (NMR) was recorded on Bruker Avance 600 (600 MHz) spectrometers. Mass spectra (ES-MS) were recorded on a LC/MS and Time Of Flight (TOF) mass spectrometer. U.V.-Visible spectra were recorded using a ChemStation Rev. A.10.01 from Agilent Technologies
# [2] = human subjects, doses as high as 8 g of curcumin per day; cited from earlier work
# [3] = unmodified curcumin, background statement; cited from earlier work
# amyloid plaques = settings: cited from earlier work
# Oligodendroglioma cells = experiment: Apoptosis of Oligodendroglioma cells (DAPI staining); format: cell-based; settings: 50 micro molar
# Protocol: The small molecule curcumin analogs including curcumin dimers, curcumin polymers and curcumin modified polymers, typical examples shown in Schemes 1-6 of the present invention can be used for the treatment of cancer. […] Oligodendroglioma cells were treated with 50 micro molar concentration of curcumin and asymmetric curcumin dimer stained with DAPPI presented.
# Very limited cell death is seen in human fibroblasts, which serve as a benign control cell line. The percentage of apoptosis is lower at higher concentrations (100 μM and more) as compared to that at 20 μM and 50 μM for all the compounds including curcumin because at higher concentration curcumin and analogs of the invention cause HOG cell necrosis. This alternate pathway of cell killing has been established via DNA laddering studies.
compound,measurement,setting,value
"COc1cc(/C=C\C(=O)CC(=O)/C=C\c2ccc(OC(=O)CCCC(=O)NCCOCCOCCOCCOCCOCCOCCN=[N+]=[N-])c(OC)c2)ccc1O [Compound 4, Mono-2-(2-(2-(2-(2-(2-(2-azidoethoxy)ethoxy)ethoxy)ethoxy)ethoxy)ethoxy)ethylcarbamoyl butanoate-Curcumin]",Molar Extinction Coeffecient,[1],26764
"C#CCOc1ccc(C=CC(=O)CC(=O)C=Cc2ccc(O)c(OC)c2)cc1OC [Compound 5, Mono-Propargyl Curcumin]",Molar Extinction Coeffecient,[1],29510
"COc1cc(/C=C\C(=O)CC(=O)/C=C\c2ccc(O)c(OC)c2)ccc1O [Curcumin, (1Z,6Z)-1,7-bis(4-hydroxy-3-methoxyphenyl)hepta-1,6-diene 3,5-dione]",average peak serum concentration,[2],652.5 ng/mL
same,Molar Extinction Coeffecient,[1],"50,000"
same,water and plasma solubility,[3],poor water and plasma solubility
same,amyloid levels and plaque burden,amyloid plaques; fed to mice with advanced amyloid accumulation,reduced amyloid levels and plaque burden
same,blood-brain barrier crossing and plaque binding,"amyloid plaques; injected, transgenic mouse model",crosses the blood-brain barrier and binds amyloid plaques
"(2-(2-(2-(2-(2-(2-(2-(4-methylene)-1H-1,2,3-triazol-1-yl)ethoxy)ethoxy)ethoxy)ethoxy)ethoxy)ethoxy)ethylcarbamoyl butanoate curcumin dimer [Compound 7]",apoptosis characterized by nuclear condensation (DAPI staining),Oligodendroglioma cells,Extensive apoptosis
same,induction of apoptosis relative to parent compound curcumin,Oligodendroglioma cells,superior in inducing apoptosis
